Measured values from patent publication US10131652B2, “Pyrimidinyloxy benzene derivatives as herbicides” (E. I. DU PONT DE NEMOURS AND COMPANY, priority 2014, dated 2018).

Assays:
Assay in all cases: Test D pre-/postemergence plant response
Type in all cases: in vivo
[1] = test system: yellow nutsedge (Cyperus esculentus); conditions: Postemergence; for Nutsedge, Yellow plant response rating: scale 0 to 100 (0 no effect, 100 complete control); for Plant response rating, Nutsedge, Yellow: scale 0 to 100, 0 no effect, 100 complete control
Outline: (§1)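 Seeds were planted in a loam and sand blend and sprayed preemergence. In parallel, seedlings grown in peat moss/vermiculite medium were sprayed postemergence at 2 to 18 cm height. Both used a surfactant-containing non-phytotoxic solvent. Greenhouse ratings at 13 to 15 days used a 0–100 control scale.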

[2] = test system: johnsongrass (Sorghum halepense); conditions: Postemergence; for Johnsongrass plant response rating: scale 0 to 100 (0 no effect, 100 complete control)
Outline: as §1

[3] = test system: blackgrass (Alopecurus myosuroides); conditions: Postemergence; for Blackgrass plant response rating: scale 0 to 100 (0 no effect, 100 complete control); for Plant response rating, Blackgrass: scale 0 to 100, 0 no effect, 100 complete control
Outline: as §1

[4] = test system: corn (Zea mays); conditions: Postemergence; for Corn plant response rating: scale 0 to 100 (0 no effect, 100 complete control); for Plant response rating, Corn: scale 0 to 100, 0 no effect, 100 complete control
Outline: as §1

[5] = test system: giant foxtail (Setaria faberii); conditions: Postemergence; for Foxtail, Giant plant response rating: scale 0 to 100 (0 no effect, 100 complete control); for Plant response rating, Foxtail, Giant: scale 0 to 100, 0 no effect, 100 complete control
Outline: as §1

[6] = test system: oilseed rape (Brassica napus); conditions: Postemergence; for Oilseed Rape plant response rating: scale 0 to 100 (0 no effect, 100 complete control); for Plant response rating, Oilseed Rape: scale 0 to 100, 0 no effect, 100 complete control
Outline: as §1

[7] = test system: waterhemp (common waterhemp, Amaranthus rudis); conditions: Postemergence; for Waterhemp plant response rating: scale 0 to 100 (0 no effect, 100 complete control); for Plant response rating, Waterhemp: scale 0 to 100, 0 no effect, 100 complete control
Outline: as §1

[8] = test system: large (Lg) crabgrass (Digitaria sanguinalis); conditions: Postemergence; for Crabgrass, Large plant response rating: scale 0 to 100 (0 no effect, 100 complete control); for Plant response rating, Crabgrass, Large: scale 0 to 100, 0 no effect, 100 complete control
Outline: as §1

[9] = test system: morningglory (Ipomoea coccinea); conditions: Postemergence; for Morningglory plant response rating: scale 0 to 100 (0 no effect, 100 complete control); for Plant response rating, Morningglory: scale 0 to 100, 0 no effect, 100 complete control
Outline: as §1

[10] = test system: ragweed (common ragweed, Ambrosia elatior); conditions: Postemergence; for Ragweed plant response rating: scale 0 to 100 (0 no effect, 100 complete control); for Plant response rating, Ragweed: scale 0 to 100, 0 no effect, 100 complete control
Outline: as §1

[11] = test system: velvetleaf (Abutilon theophrasti); conditions: Postemergence; for Velvetleaf plant response rating: scale 0 to 100 (0 no effect, 100 complete control); for Plant response rating, Velvetleaf: scale 0 to 100, 0 no effect, 100 complete control
Outline: as §1

[12] = test system: Italian ryegrass (Lolium multiflorum); conditions: Postemergence; for Ryegrass, Italian plant response rating: scale 0 to 100 (0 no effect, 100 complete control); for Plant response rating, Ryegrass, Italian: scale 0 to 100, 0 no effect, 100 complete control
Outline: as §1

[13] = test system: winter wheat (Triticum aestivum); conditions: Postemergence; for Wheat plant response rating: scale 0 to 100 (0 no effect, 100 complete control); for Plant response rating, Wheat: scale 0 to 100, 0 no effect, 100 complete control
Outline: as §1

[14] = test system: pigweed (Amaranthus retroflexus); conditions: Postemergence; for Pigweed plant response rating: scale 0 to 100 (0 no effect, 100 complete control); for Plant response rating, Pigweed: scale 0 to 100, 0 no effect, 100 complete control
Outline: as §1

[15] = test system: lambsquarters (Chenopodium album); conditions: Postemergence; for Lambsquarters plant response rating: scale 0 to 100 (0 no effect, 100 complete control); for Plant response rating, Lambsquarters: scale 0 to 100, 0 no effect, 100 complete control
Outline: as §1

[16] = test system: soybean (Glycine max); conditions: Postemergence; for Soybean plant response rating: scale 0 to 100 (0 no effect, 100 complete control); for Plant response rating, Soybean: scale 0 to 100, 0 no effect, 100 complete control
Outline: as §1

[17] = test system: barnyardgrass (Echinochloa crus-galli); conditions: Postemergence; for Barnyardgrass plant response rating: scale 0 to 100 (0 no effect, 100 complete control); for Plant response rating, Barnyardgrass: scale 0 to 100, 0 no effect, 100 complete control
Outline: as §1

[18] = test system: galium (catchweed bedstraw, Galium aparine); conditions: Postemergence; for Galium plant response rating: scale 0 to 100 (0 no effect, 100 complete control); for Plant response rating, Galium: scale 0 to 100, 0 no effect, 100 complete control
Outline: as §1

## FC(Cl)c1cc(-c2ccccc2Oc2ncc(Cl)cn2)no1 (centres unmarked) [Compound 116]
[1]; 16 g ai/ha
  Nutsedge, Yellow plant response rating: 5
[1]; 31 g ai/ha
  Nutsedge, Yellow plant response rating: 5
[1]; 62 g ai/ha
  Plant response rating, Nutsedge, Yellow: 10
[1]; 125 g ai/ha
  Plant response rating, Nutsedge, Yellow: 25
[2]; 16 g ai/ha
  Johnsongrass plant response rating: 10
[2]; 31 g ai/ha
  Johnsongrass plant response rating: 20
[2]; 62 g ai/ha, scale 0 to 100, 0 no effect, 100 complete control
  Plant response rating, Johnsongrass: 20
[3]; 16 g ai/ha
  Blackgrass plant response rating: 0
[3]; 31 g ai/ha
  Blackgrass plant response rating: 5
[3]; 62 g ai/ha
  Plant response rating, Blackgrass: 5
[3]; 125 g ai/ha
  Plant response rating, Blackgrass: 35
[4]; 16 g ai/ha
  Corn plant response rating: 5
[4]; 31 g ai/ha
  Corn plant response rating: 10
[4]; 62 g ai/ha
  Plant response rating, Corn: 5
[4]; 125 g ai/ha
  Plant response rating, Corn: 10
[5]; 16 g ai/ha
  Foxtail, Giant plant response rating: 5
[5]; 31 g ai/ha
  Foxtail, Giant plant response rating: 5
[5]; 62 g ai/ha
  Plant response rating, Foxtail, Giant: 10
[5]; 125 g ai/ha
  Plant response rating, Foxtail, Giant: 60
[6]; 16 g ai/ha
  Oilseed Rape plant response rating: 50
[6]; 31 g ai/ha
  Oilseed Rape plant response rating: 10
[6]; 62 g ai/ha
  Plant response rating, Oilseed Rape: 55
[6]; 125 g ai/ha
  Plant response rating, Oilseed Rape: 70
[7]; 16 g ai/ha
  Waterhemp plant response rating: 70
[7]; 31 g ai/ha
  Waterhemp plant response rating: 90
[7]; 62 g ai/ha
  Plant response rating, Waterhemp: 90
[7]; 125 g ai/ha
  Plant response rating, Waterhemp: 100
[8]; 16 g ai/ha
  Crabgrass, Large plant response rating: 5
[8]; 31 g ai/ha
  Crabgrass, Large plant response rating: 5
[8]; 62 g ai/ha
  Plant response rating, Crabgrass, Large: 25
[8]; 125 g ai/ha
  Plant response rating, Crabgrass, Large: 40
[9]; 16 g ai/ha
  Morningglory plant response rating: 15
[9]; 31 g ai/ha
  Morningglory plant response rating: 10
[9]; 62 g ai/ha
  Plant response rating, Morningglory: 10
[9]; 125 g ai/ha
  Plant response rating, Morningglory: 30
[10]; 16 g ai/ha
  Ragweed plant response rating: 40
[10]; 31 g ai/ha
  Ragweed plant response rating: 35
[10]; 62 g ai/ha
  Plant response rating, Ragweed: 60
[10]; 125 g ai/ha
  Plant response rating, Ragweed: 75
[11]; 16 g ai/ha
  Velvetleaf plant response rating: 55
[11]; 31 g ai/ha
  Velvetleaf plant response rating: 65
[11]; 62 g ai/ha
  Plant response rating, Velvetleaf: 70
[11]; 125 g ai/ha
  Plant response rating, Velvetleaf: 75
[12]; 16 g ai/ha
  Ryegrass, Italian plant response rating: 0
[12]; 31 g ai/ha
  Ryegrass, Italian plant response rating: 0
[12]; 62 g ai/ha
  Plant response rating, Ryegrass, Italian: 5
[12]; 125 g ai/ha
  Plant response rating, Ryegrass, Italian: 10
[13]; 16 g ai/ha
  Wheat plant response rating: 70
[13]; 31 g ai/ha
  Wheat plant response rating: 0
[13]; 62 g ai/ha
  Plant response rating, Wheat: 5
[13]; 125 g ai/ha
  Plant response rating, Wheat: 5
[14]; 16 g ai/ha
  Pigweed plant response rating: 75
[14]; 31 g ai/ha
  Pigweed plant response rating: 75
[14]; 62 g ai/ha
  Plant response rating, Pigweed: 90
[14]; 125 g ai/ha
  Plant response rating, Pigweed: 90
[15]; 16 g ai/ha
  Lambsquarters plant response rating: 40
[15]; 31 g ai/ha
  Lambsquarters plant response rating: 60
[15]; 62 g ai/ha
  Plant response rating, Lambsquarters: 80
[15]; 125 g ai/ha
  Plant response rating, Lambsquarters: 100
[16]; 16 g ai/ha
  Soybean plant response rating: 40
[16]; 31 g ai/ha
  Soybean plant response rating: 55
[16]; 62 g ai/ha
  Plant response rating, Soybean: 30
[16]; 125 g ai/ha
  Plant response rating, Soybean: 95
[17]; 16 g ai/ha
  Barnyardgrass plant response rating: 5
[17]; 31 g ai/ha
  Barnyardgrass plant response rating: 5
[17]; 62 g ai/ha
  Plant response rating, Barnyardgrass: 20
[17]; 125 g ai/ha
  Plant response rating, Barnyardgrass: 30
[18]; 16 g ai/ha
  Galium plant response rating: 60
[18]; 31 g ai/ha
  Galium plant response rating: 60
[18]; 62 g ai/ha
  Plant response rating, Galium: 70
[18]; 125 g ai/ha
  Plant response rating, Galium: 90
